Experimental data as given in PubChem BioAssay (NCI).
Where “and” joins values, the source holds several entries; their conditions need not be identical. Equal entries are not always repeated.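 Dose response: 5 concentrations. Exposure: 48 h. Format: 96-well plates. Endpoint: linear interpolation; highest concentration if not reached. GI50: concentration for 50% inhibition of growth. TGI: concentration producing complete growth inhibition.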

Experiments:
Assay in all cases: DTP human tumour cell line panel, 48 h
[1] = test system: K-562 leukemia
[2] = test system: SNB-19 CNS
[3] = test system: HCT-15 colon
[4] = test system: SF-268 CNS
[5] = test system: HCT-116 colon
[6] = test system: SF-539 CNS
[7] = test system: HT29 colon
[8] = test system: RXF 393 renal
[9] = test system: EKVX NSCLC
[10] = test system: CCRF-CEM leukemia

| Structure (SMILES) | GI50 [1] | TGI [1] | GI50 [2] | TGI [2] | GI50 [3] | TGI [3] | GI50 [4] | TGI [4] | GI50 [5] | TGI [5] | GI50 [6] | TGI [6] | GI50 [7] | TGI [7] | GI50 [8] | TGI [8] | GI50 [9] | TGI [9] | GI50 [10] | TGI [10] |
| --- | --- | --- | --- | --- | --- | --- | --- | --- | --- | --- | --- | --- | --- | --- | --- | --- | --- | --- | --- | --- |
| N#Cc1c(-c2ccccc2)nc(SCC2CO2)nc1N1CCOCC1 (stereo not given) | > 47.2 µM | > 100 µM | 64.4 µM | > 100 µM | 4.71 µM | > 100 µM | 13.1 µM | > 100 µM | 20.5 µM | > 100 µM | 10.6 µM | > 95.4 µM | 29.7 µM | > 100 µM | 13 µM | > 100 µM | 4.73 µM | > 78.5 µM | > 31 µM | > 100 µM |
| CCN1CCN(Cc2ccc(-c3cc4c(N[C@H](C)c5ccccc5)ncnc4[nH]3)cc2)CC1 | 0.49 µM and 0.626 µM | 12.4 µM and > 10 µM | 6.11 µM and 4.04 µM | 29.7 µM and > 10 µM | 2.56 µM and 2.39 µM | 17.9 µM and > 10 µM | 2.43 µM and 4.11 µM | 18.7 µM and > 10 µM | 2.8 µM and 2.87 µM | 14.4 µM and > 10 µM | 2.07 µM and 1.9 µM | 5.67 µM and 5.14 µM | 1.99 µM and 2.41 µM | 8.77 µM and > 10 µM | 1.17 µM and 0.665 µM | 4.27 µM and 3.82 µM | 0.308 µM | > 10 µM | 2.41 µM and 3.23 µM | 6.43 µM and > 10 µM |
| COc1cc(/C=C/c2ccncc2)cc(OC)c1OC |  | > 100 µM |  | > 100 µM |  | > 100 µM |  | > 100 µM |  | > 100 µM |  | > 100 µM |  | > 100 µM |  | 99.2 µM |  | > 100 µM |  | > 100 µM |
| Clc1ccc(CSC(Cn2ccnc2)c2ccc(Cl)cc2Cl)cc1 (stereo not given) | 2 µM | 4.81 µM | 1.52 µM | 2.89 µM | 1.68 µM | 3.76 µM | 1.66 µM | 3.83 µM | 1.26 µM | 2.51 µM | 1.73 µM | 3.36 µM | 1.44 µM | 2.81 µM | 1.43 µM | 2.76 µM | 1.53 µM | 4.55 µM | 1.94 µM | 5.46 µM |
| NCCNc1c2c(c(NCCN)c3c(CO)c[nH]c13)C(=O)c1ccccc1C2=O | 9.54 µM | > 100 µM | 3.34 µM | > 100 µM | > 100 µM | > 100 µM | 0.795 µM | 6.42 µM | 7.11 µM | > 100 µM | 3.89 µM | 39.3 µM | 10.6 µM | > 100 µM | 5.84 µM | 34.7 µM | 19.7 µM | 56.2 µM | 4.28 µM | > 100 µM |
| C=CC[n+]1c(/C=C/C=C2\N(C)c3ccccc3C2(C)C)sc2ccc(OC)cc21 | 0.165 µM | 12.8 µM | 0.289 µM | 14.4 µM | 2.82 µM | 16.4 µM | 0.321 µM | 19.6 µM | 0.159 µM | 11.9 µM | 0.329 µM | 13.9 µM | 0.272 µM | 6.05 µM | 0.431 µM | 13.7 µM | 0.264 µM | 15.5 µM | 0.287 µM | 12.7 µM |
| C[N+](C)(C)CC1CCCC/C1=N\OC(=O)c1ccccc1 (stereo not given) |  | > 100 µM |  | > 100 µM |  | > 100 µM |  | > 100 µM |  | > 100 µM |  | > 100 µM |  | > 100 µM |  | > 100 µM |  | > 100 µM |  | > 100 µM |
| CCOC(=O)c1ccc2[nH]c(-c3ccc(S(=O)(=O)F)cc3)cc(=O)c2c1 |  | > 100 µM |  | > 100 µM |  | > 100 µM |  | > 100 µM |  | 76.9 µM |  | > 100 µM |  | > 100 µM |  | > 100 µM |  | > 100 µM |  | > 100 µM |
| Cc1ccc([N+](=O)[O-])cc1NC(=O)Nc1cccc(F)c1 | 2.63 µM | 71.4 µM | 6.27 µM | 97.1 µM | 3.44 µM | > 100 µM | 6.9 µM | > 100 µM | 3.53 µM | > 100 µM | 7.2 µM | 33.6 µM | 4.35 µM | > 100 µM | 18.4 µM | 61.2 µM | 3.68 µM | > 100 µM | 3.96 µM | > 100 µM |
| CN1C(=O)CC(c2cccc(C3CC(=O)N(C)C3=O)n2)C1=O (stereo not given) |  | > 100 µM |  | > 100 µM |  | > 100 µM |  | > 100 µM |  | > 100 µM |  | > 100 µM |  | > 100 µM |  | > 100 µM |  | > 100 µM |  | > 100 µM |
| COC(=O)[C@@]12C(=O)C=CC(=O)[C@@H]1C1C(=CC2COC(C)=O)O[C@@H]2OC3(CCCCC3)O[C@H]12 (stereo not given in full) |  | 43.8 µM |  | 29.8 µM |  | 18.7 µM |  | 23.7 µM |  | 15.5 µM |  | 24.7 µM |  | 19.3 µM |  | 23.4 µM |  | 32.8 µM |  | 17 µM |
| C[C@@H]1COCCN1c1cc(C2([S@](C)(=N)=O)CC2)nc(-c2ccnc3[nH]ccc23)n1 | 3.76 µM and 2.96 µM | > 100 µM | 3.96 µM and 6.33 µM | > 100 µM | 4.34 µM and 4.51 µM | > 100 µM | 7.1 µM and > 10 µM | > 100 µM | 4.67 µM and 4.53 µM | > 87.5 µM | 1.19 µM and 1.99 µM | 8.03 µM and > 10 µM | 4.27 µM and 4.99 µM | > 100 µM | 1.33 µM and 3.34 µM | 6.37 µM and > 10 µM | 6.07 µM and > 10 µM | 61.7 µM and > 10 µM | 1.21 µM and 1.11 µM | > 29 µM |
| CC1CC[C@]2(C(=O)O)CCC3(COC(=O)/C=C\c4ccc(O)cc4)C(=CCC4[C@@]5(C)CC[C@H](O)C(C)(C)C5CC[C@]43C)[C@@H]2[C@H]1C (stereo not given in full) |  | > 100 µM |  | 32.7 µM |  | > 100 µM |  | 30.8 µM |  | 37 µM |  | 31.3 µM |  | 35.5 µM |  | 33.9 µM |  | 32.8 µM |  | 81.9 µM |
